Experimental data: patent publication US4405625A, “Method of treating hyperglycemia with 1,3-dioxo-1H-benz[de]isoquinoline-2(3H)-acetic acid” (Ayerst, McKenna and Harrison Limited, priority 1979, dated 1983)

Legend:
[1] = system: plasma insulin; test: Intravenous glucose tolerance test in anaesthetized fasted non-diabetic male intact rats: plasma insulin; assay type: in vivo, rat (male Sprague Dawley); conditions: 0.75 mmol/kg i.v.
Experimental: (§1) A description of this experiment is as follows.
(§2) Male Sprague Dawley rats (200-250 g, Canadian Breeding Laboratories, St. Constant, Quebec, Canada) were used in the experiment. There were 11 animals in the group. The animals were kept in a room with constant light-dark cycle and temperature. They were allowed food (Purina Lab Chow™) and water ad libitum for at least three days before being utilized. The animals were then fasted for 24 hours and anaesthetized with nembutal (50 mg/kg, intraperitoneally; Abbott Laboratories, Montreal, Quebec, Canada.) The jugular veins were exposed and a fasting blood sample was drawn by the transmusculature puncture method, Y. Kato, J. Dupre and J. C. Beck, Endocrinology, 93, 135 (1973), employing a sodium heparin (The Upjohn Company, Don Mills, Ontario, Canada) washed syringe. Alrestatin sodium at a dose of 0.75 mmol/kg was administered as a bolus in the jugular vein followed immediately by a bolus of D-glucose (300 mg/kg; British Drug House, Montreal, Quebec, Canada). Control animals received an injection of sodium chloride (0.75 mmol/kg) instead of the alrestatin sodium. Blood samples were drawn at 5, 10 and 15 minutes after injection of the glucose. The wounds then were closed with autoclips (Clay Adams Co., Parsippany, N. J., U.S.A.) and the animals were allowed food and water for another three day period before the experiment was repeated, i.e., on day 4. […]
(§3) Plasma insulin was measured by radioimmunoassay using a charcoal separation method, V. Herbert et al, J. Clin. Endocrinol., 25, 1375 (1965). […] Plasma glucose was measured by a glucose oxidase method employing a Beckman Glucose Analyser, see Beckman Company Manual, Palo Alto, Calif., U.S.A.
(§4) The results, noted below, are expressed as mean± S.E.M. The statistical significance of changes in the concentration of plasma glucose (mg/100 ml) and insulin (μU/ml), in response to alrestatin or the vehicle, from basal fasting values was determined on the differences between group means by the Student's […]. […]

[2] = system: plasma glucose; test: Intravenous glucose tolerance test in anaesthetized fasted non-diabetic male intact rats: plasma glucose; assay type: in vivo, rat (male Sprague Dawley); conditions: 0.75 mmol/kg i.v., mean±S.E.M.
Experimental: as §1, §2, §3, §4

[3] = system: plasma insulin; test: Arginine-induced insulin release in intact rats; assay type: in vivo, rat (male Sprague-Dawley)
Experimental: (§5) After light deithyl ether anaesthetization, the animals were injected with a bolus of saline or alrestatin (sodium salt form in 0.3 ml saline/100 g of body weight) in the external jugular vein followed immediately with a bolus of arginine-HCl (British Drug House ) at a dose of 100 mg/100 g of body weight, cf. […] Vehicle control animals received a second injection of saline. Five minutes later trunk blood was collected by decapitation into chilled tubes containing sodium heparin (Upjohn) and aprotinin(Trasylol™, Boehringer-Ingelheim Dorval, Quebec, Canada) (20 U and 1000 KIU per ml whole blood, respectively). Plasma was collected after centrifugation, stored at -20° C. and assayed for immunoreactive glucagon and insulin levels within 2 weeks.
(§6) Rat insulin purchased from Novo A/S, Copenhagen, Denmark, was used as unlabelled standard. […] Glucagon antiserum (Antiserum 30K, purchased from Dr. R. H. Unger, Houston, Tex., U.S.A.) was employed in the assay. […] Metab. […] Metab. […] Antibody bound hormone was separated from free hormone by conventional charcoal-dextran methods.

[4] = system: plasma glucagon; test: Arginine-induced glucagon release in intact rats; assay type: in vivo, rat (male Sprague-Dawley)
Experimental: as §5, §6

[5] = system: blood glucose; test: Clinical tests in diabetic patients: blood glucose levels; assay type: in vivo, human (diabetic patients)
Excerpt: All patients were on a controlled diet. Patient A also was receiving the oral antidiabetic agent, glyburide (Daonil™) and patient C also was receiving the diuretic chlorthalidone (Hygroton™).

[6] = 200 mg/kg i.v. immediately before arginine 100 mg/100 g
[7] = 35-200 mg/kg i.v. immediately before arginine 100 mg/100 g

O=C(O)CN1C(=O)c2cccc3cccc(c23)C1=O [alrestatin sodium]
mean incremental change of plasma insulin ([1]; 5 min after i.v. glucose (300 mg/kg), mean±S.E.M., vehicle 32.9±5.2, p<0.02): 76.9±16.7 μU/ml
plasma insulin levels vs vehicle ([1]; 10 min after i.v. glucose (300 mg/kg)): significantly greater
plasma insulin levels vs vehicle ([1]; 15 min after i.v. glucose (300 mg/kg)): greater at 15 minutes in the alrestatin treated group although the difference was not significant
mean incremental change of plasma glucose ([2]; 5 min after i.v. glucose (300 mg/kg), vehicle 96±4.7, NS): 83.3±5.4 mg %
mean incremental change of plasma glucose ([2]; 10 min after i.v. glucose (300 mg/kg), vehicle 82.8±7.5, p<0.05): 58.8±8.5 mg %
mean incremental change of plasma glucose ([2]; 15 min after i.v. glucose (300 mg/kg), vehicle 78.4±10.7, p<0.05): 45.4±9.6 mg %
increase of arginine-induced insulin release [3, 6]: about 2.5 fold
effect on arginine-induced insulin release [3, 7]: increased the insulin release observed with arginine
effect on arginine-stimulated glucagon increase [4, 6]: completely prevented the increase caused by arginine
effect on arginine-stimulated glucagon concentrations [4, 7]: decreased the glucagon concentrations
lowering of blood sugar levels ([5]; 50 mg/kg/day i.v. for five days, diabetic patients): effective in lowering blood sugar levels
blood glucose, fasting ([5]; Patient A (also on glyburide), day 1, 50 mg/kg/day i.v., pretreatment 162): 132 mg %
blood glucose, 2hr postprandial ([5]; Patient A (also on glyburide), day 1, 50 mg/kg/day i.v., pretreatment 276): 185 mg %
blood glucose, fasting ([5]; Patient A (also on glyburide), day 2, 50 mg/kg/day i.v., pretreatment 162): 130 mg %
blood glucose, 2hr postprandial ([5]; Patient A (also on glyburide), day 2, 50 mg/kg/day i.v., pretreatment 276): 215 mg %
blood glucose, fasting ([5]; Patient A (also on glyburide), day 3, 50 mg/kg/day i.v., pretreatment 162): 97 mg %
blood glucose, 2hr postprandial ([5]; Patient A (also on glyburide), day 3, 50 mg/kg/day i.v., pretreatment 276): 155 mg %
blood glucose, fasting ([5]; Patient A (also on glyburide), day 4, 50 mg/kg/day i.v., pretreatment 162): 90 mg %
blood glucose, 2hr postprandial ([5]; Patient A (also on glyburide), day 4, 50 mg/kg/day i.v., pretreatment 276): 117 mg %
blood glucose, fasting ([5]; Patient A (also on glyburide), day 5, 50 mg/kg/day i.v., pretreatment 162): 132 mg %
blood glucose, 2hr postprandial ([5]; Patient A (also on glyburide), day 5, 50 mg/kg/day i.v., pretreatment 276): 230 mg %
blood glucose, fasting ([5]; Patient A (also on glyburide), follow-up after 5 days i.v. treatment, pretreatment 162): 111 mg %
blood glucose, 2hr postprandial ([5]; Patient A (also on glyburide), follow-up after 5 days i.v. treatment, pretreatment 276): 207 mg %
blood glucose, fasting ([5]; Patient B, day 1, 50 mg/kg/day i.v., pretreatment 90): 92 mg %
blood glucose, 2hr postprandial ([5]; Patient B, day 1, 50 mg/kg/day i.v., pretreatment 119): 72 mg %
blood glucose, fasting ([5]; Patient B, day 2, 50 mg/kg/day i.v., pretreatment 90): 89 mg %
blood glucose, 2hr postprandial ([5]; Patient B, day 2, 50 mg/kg/day i.v., pretreatment 119): 86 mg %
blood glucose, fasting ([5]; Patient B, day 3, 50 mg/kg/day i.v., pretreatment 90): 86 mg %
blood glucose, 2hr postprandial ([5]; Patient B, day 3, 50 mg/kg/day i.v., pretreatment 119): 94 mg %
blood glucose, fasting ([5]; Patient B, day 4, 50 mg/kg/day i.v., pretreatment 90): 50 mg %
blood glucose, 2hr postprandial ([5]; Patient B, day 4, 50 mg/kg/day i.v., pretreatment 119): 60 mg %
blood glucose, fasting ([5]; Patient B, day 5, 50 mg/kg/day i.v., pretreatment 90): 50 mg %
blood glucose, 2hr postprandial ([5]; Patient B, day 5, 50 mg/kg/day i.v., pretreatment 119): 43 mg %
blood glucose, fasting ([5]; Patient B, follow-up after 5 days i.v. treatment, pretreatment 90): 81 mg %
blood glucose, 2hr postprandial ([5]; Patient B, follow-up after 5 days i.v. treatment, pretreatment 119): 87 mg %
blood glucose, fasting ([5]; Patient C (also on chlorthalidone), day 1, 50 mg/kg/day i.v., pretreatment 95): 133 mg %
blood glucose, 2hr postprandial ([5]; Patient C (also on chlorthalidone), day 1, 50 mg/kg/day i.v., pretreatment 190): 128 mg %
blood glucose, fasting ([5]; Patient C (also on chlorthalidone), day 2, 50 mg/kg/day i.v., pretreatment 95): 111 mg %
blood glucose, 2hr postprandial ([5]; Patient C (also on chlorthalidone), day 2, 50 mg/kg/day i.v., pretreatment 190): 145 mg %
blood glucose, fasting ([5]; Patient C (also on chlorthalidone), day 3, 50 mg/kg/day i.v., pretreatment 95): 104 mg %
blood glucose, 2hr postprandial ([5]; Patient C (also on chlorthalidone), day 3, 50 mg/kg/day i.v., pretreatment 190): 141 mg %
blood glucose, fasting ([5]; Patient C (also on chlorthalidone), day 4, 50 mg/kg/day i.v., pretreatment 95): 50 mg %
blood glucose, 2hr postprandial ([5]; Patient C (also on chlorthalidone), day 4, 50 mg/kg/day i.v., pretreatment 190): 90 mg %
blood glucose, fasting ([5]; Patient C (also on chlorthalidone), day 5, 50 mg/kg/day i.v., pretreatment 95): 77 mg %
blood glucose, 2hr postprandial ([5]; Patient C (also on chlorthalidone), day 5, 50 mg/kg/day i.v., pretreatment 190): 106 mg %
blood glucose, fasting ([5]; Patient C (also on chlorthalidone), follow-up after 5 days i.v. treatment, pretreatment 95): 119 mg %
blood glucose, 2hr postprandial ([5]; Patient C (also on chlorthalidone), follow-up after 5 days i.v. treatment, pretreatment 190): 149 mg %
